Results: US7361658B2, “2-acylaminothiazole derivative or salt thereof” (Astellas Pharma Inc., priority 2003, dated 2008)
Read-outs that look alike come from different tables or passages of the source.

Experiments:
human c-mpl-Ba/F3 cells [1] = target: T1, human c-mpl-Ba/F3 cells (Homo sapiens, UniProt P40238); assay: Mouse oral administration test: human c-mpl-Ba/F3 cell growth activity of a plasma after oral administration; type: in vivo; conditions: male ICR mouse, plasma 2 h after administration, maximum activity of each test compound = 100%
T1 construct: expressed in transfected cells; host or cells: Ba/F3 (murine pro-B cells) expressing human c-mpl
T1 sequence (P40238 26-635): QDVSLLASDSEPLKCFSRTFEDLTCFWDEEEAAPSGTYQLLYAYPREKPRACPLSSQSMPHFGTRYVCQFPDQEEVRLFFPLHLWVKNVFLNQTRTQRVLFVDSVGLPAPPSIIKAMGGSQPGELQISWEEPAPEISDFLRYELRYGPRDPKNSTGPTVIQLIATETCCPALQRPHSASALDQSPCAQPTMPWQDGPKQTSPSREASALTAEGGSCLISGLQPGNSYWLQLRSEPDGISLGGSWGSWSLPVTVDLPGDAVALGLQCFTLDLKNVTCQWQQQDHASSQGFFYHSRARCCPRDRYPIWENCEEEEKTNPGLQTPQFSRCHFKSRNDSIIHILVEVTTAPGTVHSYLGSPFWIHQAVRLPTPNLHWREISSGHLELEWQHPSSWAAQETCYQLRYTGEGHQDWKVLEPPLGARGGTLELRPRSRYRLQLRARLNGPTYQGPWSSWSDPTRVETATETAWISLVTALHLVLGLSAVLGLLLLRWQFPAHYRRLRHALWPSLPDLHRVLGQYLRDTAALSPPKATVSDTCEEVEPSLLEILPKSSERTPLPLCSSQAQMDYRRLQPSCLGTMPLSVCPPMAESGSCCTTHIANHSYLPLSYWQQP
Protocol: (iii) Mouse Oral Administration Test
3 mg/kg or 10 mg/kg (100 mg/kg in Comparative Compounds 1 to 3) of a test compound dissolved or suspended in a 0.5% methylcellulose aqueous solution was orally administered to a male ICR mouse. After 2 hours from administration, a blood was sampled from the subabdominal large vein using 1/10-volume 3.8% sodium citrate as an anticoagulant. Centrifugation was performed at 12,000 rpm for 3 minutes. The resulting plasma was heated at 56° C. for 30 minutes, and added to a system of the human c-mpl-Ba/F3 cell growth test described in (i) such that the final concentration of the plasma reached 0.3%, 1% or 3% (10% in Comparative Compounds 1 to 3) to measure a cell growth activity. The cell growth activity (%) of each plasma was measured when the maximum cell growth activity of each test compound was defined as 100%.

human c-mpl-Ba/F3 cells [2] = target: T1, human c-mpl-Ba/F3 cells; assay: Human c-mpl-Ba/F3 cell growth test; type: cell-based; conditions: for Emax / Efficacy: maximum cell growth activity; for Emax: read-out: Efficacy
Protocol: (i) Human c-mpl-Ba/F3 Cell Growth Test
In a 96-well microplate, 2×10^5 cells/ml of human c-mpl-Ba/F3 cells were cultured at 37° C. in 10% fetal bovine serum-containing RPMI1640 medium (100 μl/well) containing each test compound at each concentration. After 24 hours from the start-up of culture, 10 μl/well of WST-1/1-methoxy PMS (cell counting kit, Dojin) was added. Immediately after addition and 2 hours after addition, absorbance of A450/A650 was measured with a microplate reader (Model 3350: Bio-Rad), and an increase in absorbance for 2 hours was defined as a growth activity of each test compound.
pot: Concentration of each test compound at which to accelerate cell growth by 30% of a maximum cell growth activity of compound A (compound A and rhTPO in rhTPO)
Efficacy: Maximum cell growth activity of each test compound when a maximum cell growth activity of compound A (compound A and rhTPO in rhTPO) is defined as 100%.
Compound A refers to a compound in Example 9 of the foregoing Patent Document 10.

[3] = 100 mg/kg p.o., dilution rate 10%
[4] = concentration at which cell growth is accelerated by 30% of the maximum cell growth activity of compound A, 24 h culture
[5] = maximum of compound A defined as 100%
[6] = concentration at which cell growth is accelerated by 30% of the maximum cell growth activity of rhTPO (applies to compound A and rhTPO)
[7] = maximum of rhTPO defined as 100% (applies to compound A and rhTPO)
[8] = 3 mg/kg p.o., dilution rate 0.3%

Molecule	Pot (human c-mpl-Ba/F3 cells [2]; [4]) [nM]	Emax (human c-mpl-Ba/F3 cells [2]; [5]) [%]	further results
O=C1NC(=S)S/C1=C\c1ccc(C(=O)Nc2nc(-c3ccc(Cl)c(Cl)c3)cs2)cc1 [Comparative Compound 1, reference compound]	4.4	101	Cell growth activity (human c-mpl-Ba/F3 cells [1]; [3]): <10%
O=C(O)/C(Cl)=C/c1ccc(C(=O)Nc2nc(-c3ccc(Cl)c(Cl)c3)cs2)cc1 [Comparative Compound 2, reference compound]	2.1	96	Cell growth activity (human c-mpl-Ba/F3 cells [1]; [3]): <10%
Cc1sc(NC(=O)c2ccc(/C=C(\Cl)C(=O)O)cc2)nc1-c1cccc(C(F)(F)F)c1 [Comparative Compound 3, reference compound]	6.9	96	Cell growth activity (human c-mpl-Ba/F3 cells [1]; [3]): <10%
COc1cc(C(=O)Nc2nc(-c3ccc(F)cc3)c(N3CCN(C4CCCCC4)CC3)s2)ccn1 [Comparative Compound 4, reference compound]	251	95	
O=C(Nc1nc(-c2cc(Cl)cs2)c(N2CCN(C3CCCCC3)CC2)s1)c1ccc(OCCO)c(Cl)c1 [Compound A, reference compound]			Pot (human c-mpl-Ba/F3 cells [2]; [6]): 10 nM; Emax (human c-mpl-Ba/F3 cells [2]; [7]): 87%
CN(C)Cc1sc(NC(=O)c2cnc(N3CCC(C(=O)O)CC3)c(Cl)c2)nc1-c1cc(Cl)cs1 [Example 65, 1-(3-chloro-5-{[4-(4-chlorothiophen-2-yl)-5-(dimethylaminomethyl)thiazol-2-yl]carbamoyl}-2-pyridyl)piperidine-4-carboxylic acid]	4.3	114	Cell growth activity (human c-mpl-Ba/F3 cells [1]; 3 mg/kg p.o., dilution rate 3%): ≧80%
O=C(Nc1nc(-c2cc(Cl)cs2)c(CN2CCCCCC2)s1)c1cnc(N2CCC(C(=O)O)CC2)c(Cl)c1 [Example 84, 1-(5-{[5-(azepan-1-ylmethyl)-4-(4-chlorothiophen-2-yl)thiazol-2-yl]carbamoyl}-3-chloro-2-pyridyl)piperidine-4-carboxylic acid]	4.2	103	Cell growth activity (human c-mpl-Ba/F3 cells [1]; 3 mg/kg p.o., dilution rate 1%): ≧80%
O=C(Nc1nc(-c2cc(Cl)cs2)c(CN2CCCCCCC2)s1)c1cnc(N2CCC(C(=O)O)CC2)c(Cl)c1 [Example 85]	3.3		Cell growth activity (human c-mpl-Ba/F3 cells [1]; 3 mg/kg p.o., dilution rate 1%): ≧80%; Efficacy (human c-mpl-Ba/F3 cells [2]; [5]): 107%
CN(Cc1sc(NC(=O)c2cnc(N3CCC(C(=O)O)CC3)c(Cl)c2)nc1-c1cc(Cl)cs1)C1CCCCC1 [Example 90, 1-{3-chloro-5-[(4-(4-chlorothiophen-2-yl)-5-{[cyclohexyl(methyl)amino]methyl}thiazol-2-yl)carbamoyl]-2-pyridyl}piperidine-4-carboxylic acid]	2.0	94	Cell growth activity (human c-mpl-Ba/F3 cells [1]; [8]): ≧80%
CN(Cc1sc(NC(=O)c2cnc(N3CCC(C(=O)O)CC3)c(Cl)c2)nc1-c1cc(Cl)cs1)C1CC1 [Example 101, 1-{3-chloro-5-[(4-(4-chlorothiophen-2-yl)-5-{[cyclopropyl(methyl)amino]methyl}thiazol-2-yl)carbamoyl]-2-pyridyl}piperidine-4-carboxylic acid]	3.1	108	Cell growth activity (human c-mpl-Ba/F3 cells [1]; 3 mg/kg p.o., dilution rate 1%): 76%
C[C@@H]1CCCN1Cc1sc(NC(=O)c2cnc(N3CCC(C(=O)O)CC3)c(Cl)c2)nc1-c1cc(Cl)cs1 [Example 107, 1-{3-chloro-5-[(4-(4-chlorothiophen-2-yl)-5-{[(2R)-2-methylpyrrolidin-1-yl]methyl}thiazol-2-yl)carbamoyl]-2-pyridyl}piperidine-4-carboxylic acid]	1.5	112	
C[C@H]1CCN(Cc2sc(NC(=O)c3cnc(N4CCC(C(=O)O)CC4)c(Cl)c3)nc2-c2cc(Cl)cs2)C1 [Example 109, 1-{3-chloro-5-[(4-(4-chlorothiophen-2-yl)-5-{[(3S)-3-methylpyrrolidin-1-yl]methyl}thiazol-2-yl)carbamoyl]-2-pyridyl}piperidine-4-carboxylic acid]	3.9	95	Cell growth activity (human c-mpl-Ba/F3 cells [1]; 3 mg/kg p.o., dilution rate 1%): 59%
CO[C@@H](C)CN(C)Cc1sc(NC(=O)c2cnc(N3CCC(C(=O)O)CC3)c(Cl)c2)nc1-c1cc(Cl)cs1 [Example 111, 1-{3-chloro-5-[(4-(4-chlorothiophen-2-yl)-5-{[[(2S)-2-methoxypropyl](methyl)amino]methyl}thiazol-2-yl)carbamoyl]-2-pyridyl}piperidine-4-carboxylic acid]	6.0	87	
CCCCN(C)Cc1sc(NC(=O)c2cnc(N3CCC(CO)CC3)c(Cl)c2)nc1-c1cc(Cl)cs1 [Example 150, N-[5-{[butyl(methyl)amino]methyl}-4-(4-chlorothiophen-2-yl)thiazol-2-yl]-5-chloro-6-[4-(hydroxymethyl)piperidino]nicotinamide]	3.6	102	Cell growth activity (human c-mpl-Ba/F3 cells [1]; [8]): 28%
CCCCN(C)Cc1sc(NC(=O)c2cnc(NCCCO)c(Cl)c2)nc1-c1cc(Cl)cs1 [Example 151, N-[5-{[butyl(methyl)amino]methyl}-4-(4-chlorothiophen-2-yl)thiazol-2-yl]-5-chloro-6-[(3-hydroxypropyl)amino]nicotinamide]	8.4	99	Cell growth activity (human c-mpl-Ba/F3 cells [1]; 10 mg/kg p.o., dilution rate 3%): 24%
C[C@@H]1CCCN1Cc1sc(NC(=O)c2cnc(N3CC(CC(=O)O)C3)c(Cl)c2)nc1-c1cc(Cl)cs1 [Example 222, (1-{3-chloro-5-[(4-(4-chlorothiophen-2-yl)-5-{[(2R)-2-methylpyrrolidin-1-yl]methyl}thiazol-2-yl)carbamoyl]-2-pyridyl}azetidin-3-yl)acetic acid]	4.4	102	
C[C@@H]1CCCN1Cc1sc(NC(=O)c2cnc(N(C)CCCC(=O)O)c(Cl)c2)nc1-c1cc(Cl)cs1 [Example 226, 4-[{3-chloro-5-[(4-(4-chlorothiophen-2-yl)-5-{[(2R)-2-methylpyrrolidin-1-yl]methyl}thiazol-2-yl)carbamoyl]-2-pyridyl}(methyl)amino]butyric acid]	4.6	88	
CC(C)N(C)Cc1sc(NC(=O)c2cnc(N(C)CCCC(=O)O)c(Cl)c2)nc1-c1cc(Cl)cs1 [Example 227, 4-[{3-chloro-5-[(4-(4-chlorothiophen-2-yl)-5-{[isopropyl(methyl)amino]methyl}thiazol-2-yl)carbamoyl]-2-pyridyl}(methyl)amino]butyric acid]	3.2	88	
C[C@H]1CCCN1Cc1sc(NC(=O)c2cnc(N3CCC(C(=O)O)CC3)c(F)c2)nc1-c1cc(Cl)cs1 [Example 314, 1-{5-[(4-(4-chlorothiophen-2-yl)-5-{[(2S)-2-methylpyrrolidin-1-yl]methyl}thiazol-2-yl)carbamoyl]-3-fluoro-2-pyridyl}piperidine-4-carboxylic acid]			Cell growth activity (human c-mpl-Ba/F3 cells [1]; 3 mg/kg p.o., dilution rate 3%): 52%
rhTPO: thrombopoietin (TPO), a c-Mpl ligand; a protein			Pot (human c-mpl-Ba/F3 cells [2]; [6]): 0.012 nM; Efficacy (human c-mpl-Ba/F3 cells [2]; [7]): 100%
